Measured values from patent publication US20260365696A1, “INHIBITORS OF PTP1B / NCK1 INTERACTION AND METHODS OF MAKING AND USING SAME” (Radella Pharmaceuticals LLC, priority 2023, published 2026).

Biological target: T1, SH3-2 domain of NCK1 (Homo sapiens, UniProt P16333)
T1 construct: To amplify the NCK1 SH3-2 domain, the primers; 10xHis tag with TEV site (vector pSF-OXB20-NH2-10HIS) (N, cleaved yes); made in house; host or cells: E. coli C43(DE3)
Assay: Isothermal titration calorimetry (ITC) binding to NCK1 SH3-2 domain
In short: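 Peptides (3-7.5 mM) titrated into TEV-cleaved, His-purified human NCK1 SH3-2 domain (0.125-0.3 mM) at 25 °C in 10 mM sodium buffer with sodium chloride, pH 8.0. One 0.2 μL then 19 × 2 μL injections; KD from fits with 0.8-1.2 sites, averaged over three runs.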

Substance Ac-PPPEHIPPPPRPPKR-NH2 [MD17] has a Kd (Alanine scanning of the MD17 15-mer peptide, ITC, 25 °C, pH 8.0) of no more than 300 µM.

Ac-PRPPKR-NH2 [MD20, Ac-PRPPKR-NH2] was tested, and the Kd (Alanine scanning of the MD20 6-mer peptide, ITC, 25 °C, pH 8.0) was no more than 300 µM, the Kd (Peptide truncation analysis, ITC, 25 °C, pH 8.0) was no more than 300 µM and the Kd (ability to bind SH3-2 domain of NCK1, stated in text) was less than 193 µM.
